Columns and labels:
Assay type in all cases: in vivo
Alternaria solani = assay: Use Example 5: early blight of tomato caused by Alternaria solani, synergism test (Abbot efficacy, Colby); conditions: individual active compound; for pest or weed control at 4 ppm: 4 ppm in the spray liquor
Method: (§1) For use examples 3 to 9, the active compounds, separately or jointly, were prepared as a stock solution comprising 0.25% by weight of active compound in acetone or DMSO. 1% by weight of the emulsifier Uniperol® EL (wetter having emulsifying and dispersant action based on ethoxylated alkylphenols) was added to this solution, and the mixture was diluted with water to the desired concentration.
(§2) The active compounds fosetyl-AI, epoxiconazole, triticonazole and pyraclostrobin were applied in their commercial formulation.
Leaves of potted plants of the cultivar “Goldene Königin” were sprayed to run off point with an aqueous suspension having the active compound concentration stated below. The next day, the leaves were infected with an aqueous spore suspension of Alternaria solani in a 2% strength biomalt solution having a density of 0.17×10^6 spores/ml. The plants were then placed in a water vapor-saturated chamber at temperatures between 20 and 22° C. After 5 days, the disease on the untreated but infected control plants had developed to such an extent that the infection could be determined visually in %.
A further test according to use example 3 was evaluated as follows:
(§3) The visually determined percentages of infected leaf areas were converted into efficacies in % of the untreated control:
(§4) The efficacy (E) is calculated as follows using Abbot's formula: […]
(§5) α corresponds to the fungicidal infection of the treated plants in % and β corresponds to the fungicidal infection of the untreated (control) plants in %
(§6) […]; The expected efficacies of mixtures of active compounds were determined using Colby's formula (Colby, S.R. “Calculating synergistic and antagonistic responses of herbicide combinations”, Weeds, 15, 20-22, 1967) and compared with the observed efficacies.
(§7) E=x+y−x·y/100 • E expected efficacy, expressed in % of the untreated control, when using the mixture of the active compounds A and B at the concentrations a and b • x efficacy, expressed in % of the untreated control, when using the active compound A at the concentration a • y efficacy, expressed in % of the untreated control, when using the active compound B at the concentration b

Puccinia recondita = assay: Use Example 6: protective activity against Puccinia recondita on wheat (brown rust of wheat); conditions: individual active compound
Method: as §1, §2, §3, §4, §5, §6, §7
Leaves of potted wheat seedlings of the cultivar “Kanzler” were sprayed to run off point with an aqueous suspension having the active compound concentration stated below. The next day, the treated plants were inoculated with a spore suspension of brown rust of wheat (Puccinia recondite). The plants were then placed in a chamber with high atmospheric humidity (90 to 95%) at 20 to 22° C. for 24 hours. During this time, the spores germinated and the germ tubes penetrated into the leaf tissue. The next day, the test plants were returned to the greenhouse and cultivated at temperatures between 20 and 22° C. and 65 to 70% relative atmospheric humidity for a further 7 days. The extent of the rust fungus development on the leaves was then determined visually.

Pyrenophora teres = assay: Use Example 7: net blotch of barley caused by Pyrenophora teres, 1 day protective application, synergism test; conditions: individual active compound
Method: as §1
Leaves of potted barley seedlings were sprayed to run off with an aqueous suspension having the active compound concentration stated below. 24 hours after the spray coating had dried on, the test plants were inoculated with an aqueous spore suspension of Pyrenophora [syn. Drechslera ] teres, the net blotch pathogen. The test plants were then placed in a greenhouse at temperatures between 20 and 24° C. and 95 to 100% relative atmospheric humidity. After 6 days, the extent of the development of the disease was determined visually in % infection of the entire leaf area.
as §3, §4, §5, §6, §7
In a further test according to use example 4, the following results were obtained: […]

[1] = Alternaria solani, 120 h, read-out: Efficacy in % of the untreated control
[2] = Alternaria solani, 120 h, 16 ppm in the spray liquor, read-out: Efficacy in % of the untreated control
[3] = Alternaria solani, 120 h, 63 ppm in the spray liquor, read-out: Efficacy in % of the untreated control

Fc1ccc([C@]2(Cn3cncn3)O[C@H]2c2ccccc2Cl)cc1 (racemic) [epoxiconazole, (2RS, 3SR)-1-[3-(2-chlorophenyl)-2,3-epoxy-2-(4-fluorophenyl)propyl]-1H-1,2,4-triazole] showed a pest or weed control at 4 ppm (Alternaria solani; [1]) of 56%.
Work on COCC(=O)N(c1c(C)cccc1C)C(C)C(=O)OC (racemic) [metalaxyl, methyl N-(methoxyacetyl)-N-(2,6-xylyl)-DL-alaninate] yielded a pest or weed control at 4 ppm (Alternaria solani; [1]) of 0%.
In the case of Cc1ccccc1-c1c(Cl)nc2ncnn2c1N1CCC(C)CC1 [Compound A-31, 5-chloro-6-(2-methylphenyl)-7-(4-methylpiperidin-1-yl)-1,2,4-triazolo[1,5a]pyrimidine], the “Efficacy in % of the untreated control” value (Puccinia recondita; 16 ppm in the spray liquor) was 22%, the “Efficacy in % of the untreated control” value (Pyrenophora teres; 16 ppm in the spray liquor) was 33% and the “Efficacy in % of the untreated control” value (Pyrenophora teres; 63 ppm in the spray liquor) was 67%. For the same molecule, the “Efficacy in % of the untreated control” value (Alternaria solani; 63 ppm in the spray liquor) was 78%.
In the case of O=C(Nc1ccccc1-c1ccc(Cl)cc1)c1cccnc1Cl [boscalid, 2-chloro-N-(4′-chlorobiphenyl-2-yl)nicotinamide], the pest or weed control at 16 ppm (Alternaria solani; [2]) was 22%.
With N#Cc1c(Cl)c(Cl)c(Cl)c(C#N)c1Cl [chlorothalonil, 2,4,5,6-tetrachloroisophthalonitrile] the “Efficacy in % of the untreated control” value (Puccinia recondita; 16 ppm in the spray liquor) was 17% and the pest or weed control at 63 ppm (Alternaria solani; [3]) was 0%.
For Cc1ccc(-c2c(Cl)nc(C#N)n2S(=O)(=O)N(C)C)cc1 [cyazofamid, 4-chloro-2-cyano-N,N-dimethyl-5-p-tolylimidazole-1-sulfonamide], the pest or weed control at 16 ppm (Alternaria solani; [2]) was 0%, the pest or weed control at 63 ppm (Alternaria solani; [3]) was 0% and the pest or weed control at 250 ppm (Alternaria solani; Alternaria solani, 120 h, 250 ppm in the spray liquor, read-out: Efficacy in % of the untreated control) was 0%.
For COc1ccc(C(=CC(=O)N2CCOCC2)c2ccc(Cl)cc2)cc1OC [dimethomorph, 3-(4-chlorophenyl)-3-(3,4-dimethoxyphenyl)-1-morpholin-4-ylpropenone], the “Efficacy in % of the untreated control” value (Puccinia recondita; 16 ppm in the spray liquor) was 0% and the “Efficacy in % of the untreated control” value (Puccinia recondita; 63 ppm in the spray liquor) was 0%.
N#Cc1sc2c(=O)c3ccccc3c(=O)c=2sc1C#N [dithianon, 5,10-dioxo-5,10-dihydronaphtho[2,3-b][1,4]dithiine-2,3-dicarbonitrile] was tested, and the “Efficacy in % of the untreated control” value (Pyrenophora teres; 16 ppm in the spray liquor) was 0%.
With CC(Cc1ccc(C(C)(C)C)cc1)CN1CC(C)OC(C)C1 (centres unmarked) [fenpropimorph, 4-[3-(4-tert-butylphenyl)-2-methylpropyl]-2,6-dimethylmorpholine] the “Efficacy in % of the untreated control” value (Puccinia recondita; 16 ppm in the spray liquor) was 0% and the “Efficacy in % of the untreated control” value (Puccinia recondita; 63 ppm in the spray liquor) was 0%.
Molecule O=C1c2ccccc2C(=O)N1SC(Cl)(Cl)Cl [folpet, 2-trichloromethylsulfanylisoindole-1,3-dione] has a pest or weed control at 63 ppm (Alternaria solani; [3]) of 0%.
CO/N=C(/C(=O)OC)c1ccccc1COc1ccccc1C [kresoxim-methyl, methyl (E)-methoxyimino[α-(otolyloxy)-otolyl]acetate] was tested, and the “Efficacy in % of the untreated control” value (Puccinia recondita; 1 ppm in the spray liquor) was 0% and the “Efficacy in % of the untreated control” value (Puccinia recondita; 4 ppm in the spray liquor) was 0%.
With CCCN(CCOc1c(Cl)cc(Cl)cc1Cl)C(=O)n1ccnc1 [prochloraz, N-propyl-N-[2-(2,4,6-trichlorophenoxy)ethyl]imidazole-1-carboxamide] the “Efficacy in % of the untreated control” value (Puccinia recondita; 4 ppm in the spray liquor) was 0% and the “Efficacy in % of the untreated control” value (Puccinia recondita; 16 ppm in the spray liquor) was 0%.
OC(Cc1ccccc1Cl)(Cn1nc[nH]c1=S)C1(Cl)CC1 (centres unmarked) [prothioconazole, 2-[2-(1-chlorocyclopropyl)-3-(2-chlorophenyl)-2-hydroxypropyl]-2,4-dihydro-[1,2,4]triazole-3-thione] showed a pest or weed control at 4 ppm (Alternaria solani; [1]) of 22%.
In the case of Cc1cc(C)nc(Nc2ccccc2)n1 [pyrimethanil, 4,6-dimethylpyrimidin-2-ylphenylamine], the “Efficacy in % of the untreated control” value (Puccinia recondita; 16 ppm in the spray liquor) was 0%.
CC1(C)CCC(=Cc2ccc(Cl)cc2)C1(O)Cn1cncn1 (centres unmarked) [triticonazole, 5-(4-chlorobenzylidene)-2,2-dimethyl-1-[1,2,4]triazol-1-ylmethylcyclo-pentanol] gave a pest or weed control at 4 ppm (Alternaria solani; [1]) of 0%.
For “manganese ethylenebis(dithiocarbamate) zinc complex [mancozeb]”, the “Efficacy in % of the untreated control” value (Puccinia recondita; 16 ppm in the spray liquor) was 0%, the “Efficacy in % of the untreated control” value (Puccinia recondita; 63 ppm in the spray liquor) was 0% and the “Efficacy in % of the untreated control” value (Alternaria solani; 16 ppm in the spray liquor) was 0%. For the same molecule, the “Efficacy in % of the untreated control” value (Alternaria solani; 63 ppm in the spray liquor) was 0%.

From US20080249113A1, “Fungicidal Mixtures” (priority 2004, published 2008)
